The source made the active and inactive calls. No cut-off for these calls is given here.
Columns and labels:
Sorghum bicolor [1] = experiment: Inhibition of radicular growth in Sorghum bicolor at 1000 ppm after 3 days; format: functional; conditions: 72 h
Cucumis sativus [2] = experiment: Stimulation of radicular growth in Cucumis sativus at 100 ppm after 3 days; format: functional, organism-based
Cucumis sativus [3] = experiment: Inhibition of radicular growth in Cucumis sativus at 1000 ppm after 3 days; format: functional, organism-based
Cucumis sativus [4] = experiment: Stimulation of radicular growth in Cucumis sativus at 1000 ppm after 3 days; format: functional, organism-based
Sorghum bicolor [5] = experiment: Inhibition of radicular growth in Sorghum bicolor at 100 ppm after 3 days; format: functional; conditions: 72 h

C[C@]1(CO)CCC[C@]2(C)[C@H]3Cc4occc4[C@@](C)(O)[C@@H]3[C@@H](O)[C@H](O)[C@@H]12
inhibition at 1000 ppm (Sorghum bicolor [1]): 13% | Activity (Cucumis sativus [2]): Active | Activity (Cucumis sativus [3]): Active

CC1(C)CCC[C@]2(C)[C@H]3Cc4occc4[C@@](C)(O)[C@@H]3[C@@H](O)[C@H](O)[C@@H]12
Activity (Cucumis sativus [4]): inactive | inhibition at 1000 ppm (Sorghum bicolor [1]): 13% | Activity (Cucumis sativus [2]): Active

CC1(C)CCC[C@]2(C)[C@H]3Cc4occc4[C@@H](C(=O)O)[C@@H]3[C@@H](O)[C@H](O)[C@@H]12
inhibition at 1000 ppm (Sorghum bicolor [1]): 65% | inhibition at 100 ppm (Sorghum bicolor [5]): 39% | Activity (Cucumis sativus [2]): Active | Activity (Cucumis sativus [3]): Active

CC1(C)CCC[C@]2(C)[C@H]3Cc4occc4[C@H]4C(=O)O[C@@H]([C@H](O)[C@@H]12)[C@@H]43
Activity (Cucumis sativus [4]): inactive | inhibition at 1000 ppm (Sorghum bicolor [1]): 13% | Activity (Cucumis sativus [2]): Active

— ChEMBL document CHEMBL1158218, “Structure and Plant Growth Regulatory Activity of New Diterpenes from Pterodon polygalaeflorus” (1996)
